# Laboratory results as given in patent EP0637588A1, “ACTIVE OXYGEN INHIBITOR COMPOSITION” (SHISEIDO COMPANY LIMITED, priority 1993, dated 1994).
# Test system: polymorphonuclear leukocyte (PMNs)
# Assay: Suppressing action on production of active oxygen from neutrophils (OPZ-stimulated, FCLA dependent chemiluminescence)
# Assay type: cell-based, white Japanese rabbit
# Conditions: Oryctolagus cuniculus, PMNs stimulated by opsonized zymosan (OPZ), 37°C, read-out: Suppressing Action on Production of Active Oxygen (Suppressive Rate %)
# Experimental: A 400 mL amount of physiological saline solution containing 0.2% glycogen was administered by drip into the abdominal cavity of a white Japanese rabbit having about 3 kg body weight without anesthesia. After 16 hours, 400 ml of sterilized physiological saline solution was administered, the cavity was massaged well, then the ascites was sampled. This was centrifuged at 100 × g to obtain a precipitate which was then suspended in a Hanks Balanced Salt Solution (HBSS) and adjusted to 5 x 10⁵ cells/mL. This was used as the polymorphonuclear leukocyte (PMNs) fraction. The action on the production of active oxygen by opsonized zymosan (OPZ) was studied as follows: To PMNs (480 µl) were added 3,7-dihydro-6-[4-[2-(N'-(5-fluoresceinyl)thioureid)ethoxy]phenyl]-2-methylimidazo[1,2-a]pyradine-3-on·sodium salt (FCLA) (2 µM) and various concentrations of test compounds. The resulting mixture was incubated at 37°C for 10 minutes, OPZ was added in an amount of 5 µL, and then the FCLA dependent chemiluminescence was measured using a photon counter (made by BertHold of Germany) under a constant temperature of 37°C along with the elapse of time.
smiles,measurement,setting,value
O=C1O[C@H]([C@@H](O)CO)C(O)=C1O [Ascorbic acid],inhibition at 0.1 µM,Concentration 0.1 µM,20.1%
same,inhibition at 1 µM,Concentration 1.0 µM,51.7%
same,inhibition at 10 µM,Concentration 10 µM,86.8%
